Test results reported in US20260042764A1, “COMPOSITIONS AND METHODS FOR INHIBITION OF KRAS” (TheRas, Inc., priority 2022, published 2026).

Legend:
[1] = biological target: T1, Avi-KRAS G12R (1-169) GppNHp/RAF1 RBD-3xFLAG (52-151) (Homo sapiens, UniProt P01116, G12R); test: Raf1-KRAS G12R-GppNHP disruption HTRF assay (Biological Example 1); assay type: binding
T1 construct: Avi-KRAS G12R (1-169)
Method in brief: (§1)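 HTRF PPI disruption; buffer 50 mM Tris pH 7.5, 100 mM NaCl, 5 mM MgCl2, 0.1% BSA, 0.01% Tween, 10% DMSO. Protein mix 1 h RT shaking, reagent mix 1 h RT shaking. Data as % activity vs DMSO (100%).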

GP2d cells (KRAS G12D) = test: Cell-based pERK HTRF assay in GP2d cell (Biological Example 2); conditions: GP2d (KRAS G12D) cells, pERK HTRF
Method in brief: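 Phospho-ERK is measured by HTRF following a 60 min compound exposure at 0.25% DMSO, with a 9-point half-log curve topping at 1 μM or 100 nM.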

[2] = biological target: T2, Avi-KRAS WT (1-169) GppNHp/RAF1 RBD-3xFLAG (52-151) (Homo sapiens, UniProt P01116); test: Raf1-KRAS WT-GppNHP disruption HTRF assay (Biological Example 1); assay type: binding
T2 construct: Avi-KRAS WT (1-169)
Method in brief: as §1

[3] = biological target: T3, Avi-KRAS G12D (1-169) GppNHp/RAF1 RBD-3xFLAG (52-151) (Homo sapiens, UniProt P01116, G12D); test: Raf1-KRAS G12D-GppNHP disruption HTRF assay (Biological Example 1); assay type: binding
T3 construct: Avi-KRAS G12D (1-169)
Method in brief: as §1

SW620 cells (KRAS G12V) = test: Cell-based pERK HTRF assay in SW620 cell (Biological Example 4); conditions: Homo sapiens, SW-620, SW620 (KRAS G12V) cells, pERK HTRF
Description: A pERK assay (Perkin Elmer) was used to determine the effectiveness of compounds in disrupting KRAS G12V protein/effector signaling in cells.
On Day 1, cells (SW620) were seeded into 96-well plates at 3×10^4 cells/well in 80 μL complete growth media (RPMI, 10% FBS).
On Day 2, cells were treated with compounds at 0.25% DMSO. The source plate was created with compounds diluted in media at 5-fold the final assay concentration. The compounds were run in a 9-point concentration curve starting at 1 μM, with a half-log dilution between concentrations. Twenty μL was transferred onto the cell plates (final volume in wells was 100 μL). Plates were harvested after 4 h incubation by aspirating media and adding kit-supplied 1x supplemented lysis buffer to all wells (50 μL per well). Plates were then placed on a plate shaker and incubated at 850 rpm for an additional 30 min.
Antibody mixture solution was prepared by diluting aliquoted d2 and Eu Cryptate antibodies 1:20 in kit supplied detection buffer and mixing the diluted antibodies solutions (1:1 v:v).
Samples were homogenized by pipetting up and down and then transferred (16 μL of cell lysates) from the 96-well cell culture plate to two wells of the HTRF 384-well detection plate containing the antibody solution. Plates were centrifuged (524 g for Imin) and allowed to incubate between 4 and 24 h at room temperature. […] Plates were centrifuged again (524 g for 1 min), then analyzed on the En Vision plate reader using the following settings: Excitation 320 nm, Bandwidth 75 nm; Emission 615 nm, Bandwidth 85 nm; Gain 100%; Flashes 100; Lag 60 μs.

[4] = biological target: T4, Avi-KRAS G12V (1-169) GppNHp/RAF1 RBD-3xFLAG (52-151) (Homo sapiens, UniProt P01116, G12V); test: Raf1-KRAS G12V-GppNHP disruption HTRF assay (Biological Example 1); assay type: binding
T4 construct: Avi-KRAS G12V (1-169)
Method in brief: as §1

[5] = KRAS G12R, GppNHp-loaded, Table 11
[6] = KRAS WT, GppNHp-loaded, Table 11
[7] = KRAS G12D, GppNHp-loaded, Table 11
[8] = KRAS G12V, GppNHp-loaded, Table 11

T4 sequence (P01116 1-169 isoform P01116-2 G12V): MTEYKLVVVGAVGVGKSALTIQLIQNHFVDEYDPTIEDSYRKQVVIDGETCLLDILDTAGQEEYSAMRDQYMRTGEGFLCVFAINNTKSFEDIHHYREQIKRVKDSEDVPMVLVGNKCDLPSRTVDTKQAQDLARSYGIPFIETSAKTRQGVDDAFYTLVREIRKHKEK
T3 sequence (P01116 1-169 isoform P01116-2 G12D): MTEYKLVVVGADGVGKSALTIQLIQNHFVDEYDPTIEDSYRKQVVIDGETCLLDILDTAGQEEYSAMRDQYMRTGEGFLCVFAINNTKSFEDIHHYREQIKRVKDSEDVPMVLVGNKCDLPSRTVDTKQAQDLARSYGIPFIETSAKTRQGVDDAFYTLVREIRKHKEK
T1 sequence (P01116 1-169 isoform P01116-2 G12R): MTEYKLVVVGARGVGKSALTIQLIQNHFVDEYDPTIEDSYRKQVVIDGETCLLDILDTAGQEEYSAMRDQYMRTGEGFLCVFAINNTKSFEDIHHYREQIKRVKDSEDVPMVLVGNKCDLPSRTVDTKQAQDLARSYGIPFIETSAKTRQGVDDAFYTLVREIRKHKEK
T2 sequence (P01116 1-169 isoform P01116-2): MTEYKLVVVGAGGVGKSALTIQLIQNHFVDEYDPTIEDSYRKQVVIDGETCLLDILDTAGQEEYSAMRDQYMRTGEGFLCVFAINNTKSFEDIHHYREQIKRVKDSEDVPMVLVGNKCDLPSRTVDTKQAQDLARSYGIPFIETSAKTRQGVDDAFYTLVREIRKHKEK

IC50 [1, 5] [µM] | IC50 [2, 6] [µM] | IC50 [3, 7] [µM] | IC50 [4, 8] [µM] | IC50 (GP2d cells (KRAS G12D); GP2d) [µM] | other results | Compound
– | – | – | – | – | IC50 ([1]; KRAS G12R, GppNHp-loaded, class symbols): 0.1 to 1 µM; IC50 (GP2d cells (KRAS G12D); GP2d, class symbols): < 0.1 µM; IC50 ([2]; KRAS WT, GppNHp-loaded, class symbols): 0.1 to 1 µM; IC50 ([3]; KRAS G12D, GppNHp-loaded, class symbols): < 0.1 µM; IC50 (SW620 cells (KRAS G12V); class symbols): < 0.1 µM; IC50 ([4]; KRAS G12V, GppNHp-loaded, class symbols): 0.1 to 1 µM | CO[C@@H](C)C(=O)N1CC[C@H](N(c2nc(OC[C@@]34CCCN3C[C@H](F)C4)nc3c(F)c(-c4ccc(F)c5sc(N)c(C#N)c45)c(C(F)(F)F)cc23)C2CC2)C1 (atropisomer, axis not shown) [Compound 811]
0.1 to 1 | 0.1 to 1 | 0.1 to 1 | 0.1 to 1 | – | IC50 (SW620 cells (KRAS G12V)): < 0.1 µM | CN(c1nc(OC[C@@]23CCCN2C[C@H](F)C3)nc2c(F)c(-c3ccc(F)c4sc(N)c(C#N)c34)c(C(F)(F)F)cc12)C1CC(F)C1 (some centres unmarked) [Compound 161]
– | – | – | – | – | IC50 ([1]; KRAS G12R-GppNHp/RAF1 RBD HTRF): 0.1 to 1 µM; IC50 ([2]; KRAS WT-GppNHp/RAF1 RBD HTRF): 0.1 to 1 µM; IC50 ([3]; KRAS G12D-GppNHp/RAF1 RBD HTRF): 0.1 to 1 µM; IC50 (SW620 cells (KRAS G12V)): < 0.1 µM; IC50 ([4]; KRAS G12V-GppNHp/RAF1 RBD HTRF): 0.1 to 1 µM | CCN(c1nc(OC[C@@]23CCCN2C[C@H](F)C3)nc2c(F)c(-c3ccc(F)c4sc(N)c(C#N)c34)c(C(F)(F)F)cc12)[C@@H]1CCN(C(C)=O)[C@@H]1C [Compound 407]
> 10 | > 10 | 1 to 10 | > 10 | 0.1 to 1 | – | CC(=O)N1CCN(c2nc(OC[C@@]34CCCN3C[C@H](F)C4)nc3c(F)c(-c4ccc(F)c5sc(N)c(C#N)c45)c(C(F)(F)F)cc23)C[C@H]1CC#N [Compound 184]
0.1 to 1 | 0.1 to 1 | < 0.1 | 0.1 to 1 | < 0.1 | – | C[C@@H](CO)N(C)c1nc(OC[C@@]23CCCN2C[C@H](F)C3)nc2c(F)c(-c3ccc(F)c4sc(N)c(C#N)c34)c(C(F)(F)F)cc12 [Compound 77]
0.1 to 1 | 0.1 to 1 | 0.1 to 1 | 0.1 to 1 | 0.1 to 1 | – | CC(=O)NC1CN(c2nc(OC[C@@]34CCCN3C[C@H](F)C4)nc3c(F)c(-c4ccc(F)c5sc(N)c(C#N)c45)c(C(F)(F)F)cc23)C1 [Compound 88]
0.1 to 1 | 0.1 to 1 | < 0.1 | 0.1 to 1 | < 0.1 | – | N#Cc1c(N)sc2c(F)ccc(-c3c(C(F)(F)F)cc4c(N5CC6CCC(C5)C6CO)nc(OC[C@@]56CCCN5C[C@H](F)C6)nc4c3F)c12 (some centres unmarked) [Compound 47]
1 to 10 | 0.1 to 1 | 0.1 to 1 | 1 to 10 | < 0.1 | – | N#Cc1c(N)sc2c(F)ccc(-c3c(C(F)(F)F)cc4c(N5CC6(COC6)C5)nc(OC[C@@]56CCCN5C[C@H](F)C6)nc4c3F)c12 [Compound 149]
1 to 10 | 1 to 10 | 1 to 10 | 1 to 10 | 0.1 to 1 | – | CN(c1nc(OC[C@@]23CCCN2C[C@H](F)C3)nc2c(F)c(-c3ccc(F)c4sc(N)c(C#N)c34)c(C(F)(F)F)cc12)[C@H]1C[C@@H](O)C1 (single isomer, unassigned) [Compound 20]
0.1 to 1 | 0.1 to 1 | 0.1 to 1 | 0.1 to 1 | < 0.1 | – | CN(CC1(CO)CC1)c1nc(OC[C@@]23CCCN2C[C@H](F)C3)nc2c(F)c(-c3ccc(F)c4sc(N)c(C#N)c34)c(C(F)(F)F)cc12 [Compound 83]
0.1 to 1 | 0.1 to 1 | 0.1 to 1 | 0.1 to 1 | – | IC50 (GP2d cells (KRAS G12D)): < 0.1 µM | CN(c1nc(OC[C@@]23CCCN2C[C@H](F)C3)nc2c(F)c(-c3ccc(F)c4sc(N)c(C#N)c34)c(C(F)(F)F)cc12)[C@@H]1CCN(S(C)(=O)=O)C1 [Compound 95]
